{"source": "patent US20130064812A1", "about": "“COMBINATION THERAPIES FOR HEMATOLOGIC MALIGNANCIES” (Gilead Calistoga LLC, priority 2011, published 2013)", "key": {"CIIbeta": {"target": "CIIbeta (Homo sapiens, UniProt O00750)", "sequence (O00750 whole entry)": "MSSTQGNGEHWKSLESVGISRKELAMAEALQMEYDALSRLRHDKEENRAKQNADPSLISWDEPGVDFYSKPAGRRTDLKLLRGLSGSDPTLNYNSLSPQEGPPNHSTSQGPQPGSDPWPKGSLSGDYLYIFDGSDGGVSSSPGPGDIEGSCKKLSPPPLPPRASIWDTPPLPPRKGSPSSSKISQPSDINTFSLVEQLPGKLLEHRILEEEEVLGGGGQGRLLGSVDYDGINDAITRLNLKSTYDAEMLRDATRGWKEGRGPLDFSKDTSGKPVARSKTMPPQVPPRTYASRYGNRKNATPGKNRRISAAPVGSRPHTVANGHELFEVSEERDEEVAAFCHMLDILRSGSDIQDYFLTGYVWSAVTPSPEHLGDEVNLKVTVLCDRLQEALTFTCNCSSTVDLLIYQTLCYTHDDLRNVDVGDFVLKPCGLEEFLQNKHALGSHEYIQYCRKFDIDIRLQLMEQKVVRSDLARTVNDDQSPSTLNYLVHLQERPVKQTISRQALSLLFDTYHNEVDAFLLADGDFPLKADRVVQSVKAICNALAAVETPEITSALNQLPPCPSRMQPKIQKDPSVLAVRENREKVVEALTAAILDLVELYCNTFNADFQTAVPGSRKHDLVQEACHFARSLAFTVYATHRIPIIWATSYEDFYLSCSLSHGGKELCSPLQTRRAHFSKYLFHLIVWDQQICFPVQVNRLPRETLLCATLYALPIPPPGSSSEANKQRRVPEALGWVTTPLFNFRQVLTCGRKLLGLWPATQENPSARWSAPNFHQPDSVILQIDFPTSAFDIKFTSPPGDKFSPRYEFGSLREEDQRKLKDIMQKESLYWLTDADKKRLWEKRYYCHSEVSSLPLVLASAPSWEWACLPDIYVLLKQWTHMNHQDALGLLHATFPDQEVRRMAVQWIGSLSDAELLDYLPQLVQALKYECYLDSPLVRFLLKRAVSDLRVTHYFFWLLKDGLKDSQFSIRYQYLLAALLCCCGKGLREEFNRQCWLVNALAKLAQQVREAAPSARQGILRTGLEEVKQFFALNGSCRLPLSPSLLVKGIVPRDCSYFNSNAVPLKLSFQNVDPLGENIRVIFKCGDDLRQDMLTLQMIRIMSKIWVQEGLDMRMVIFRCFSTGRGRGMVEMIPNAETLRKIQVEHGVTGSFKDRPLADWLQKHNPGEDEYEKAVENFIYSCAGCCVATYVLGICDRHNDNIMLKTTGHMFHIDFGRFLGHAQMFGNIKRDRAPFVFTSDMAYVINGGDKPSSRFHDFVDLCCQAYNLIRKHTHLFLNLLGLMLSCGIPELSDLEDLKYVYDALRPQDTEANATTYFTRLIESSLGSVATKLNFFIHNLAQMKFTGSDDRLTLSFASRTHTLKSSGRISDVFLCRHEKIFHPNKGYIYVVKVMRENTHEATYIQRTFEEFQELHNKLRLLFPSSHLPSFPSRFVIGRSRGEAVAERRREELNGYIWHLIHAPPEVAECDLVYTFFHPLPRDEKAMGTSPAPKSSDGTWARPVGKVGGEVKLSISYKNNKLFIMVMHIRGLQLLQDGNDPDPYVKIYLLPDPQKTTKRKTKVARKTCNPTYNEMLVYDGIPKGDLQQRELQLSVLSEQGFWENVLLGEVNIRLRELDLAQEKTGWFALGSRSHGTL", "experiment": "InvitroGen Adapta kinase assay, CIIbeta", "assay_type": "biochemical"}, "LB and INA-6 cells": {"tested_on": "LB and INA-6 cells", "experiment": "MM cell growth with IL-6 or IGF-1 ([3H]-thymidine)", "assay_type": "cell-based, human", "conditions": "5.0 or 10 μM; IL-6 1 and 10 ng/ml, IGF-1 10 and 100 ng/mL", "procedure": "DNA synthesis was determined by measuring [3H]-thymidine incorporation during the last 8 h of 72 h cultures. Data represent means (±SD) of triplicate cultures."}, "CLL cells": {"tested_on": "CLL cells", "experiment": "BH3 profiling (mitochondrial depolarization) of CLL cells", "assay_type": "cell-based, human", "conditions": "24 hours; p=0.075", "procedure": "CLL patient peripheral blood, bone marrow, and lymph node samples were analyzed by either the plate-based fluorimetry or FACS method. Briefly, PBMCs from CLL patients were made into single cell suspensions and gently permeabilized using digitonin (0.002%). For the fluorimtery-based method, 100 μM JC-1 (Invitrogen) was added at this time and cells were then loaded onto a 384-well plate, with individual wells containing individual BH3-only peptides. The JC1-BH3 assays were then conducted in triplicate on a Tecan Safire 2 with […] and Em 590+/−20 nm with a three-hour time course. For the FACS-based method, single cell suspensions from CLL patient PBMCs were stained using human Fc Block (BD Pharmingen) followed by anti-CD19-V450 (BD Pharmingen) and anti-CXCR4-APC (BD Pharmingen). […] JC-1 was measured from the 488-nm laser using a 530/30-nm filter (FITC) and a 585/42-nm filter (PE), and the degree of mitochondrial depolarization was calculated using the surrogate of the change in the median of PE signal. The mitochondrial depolarization reported in response to each BH3 peptide is normalized relative to the median percentage change in PE fluorescence of the JC-1 dye with a negative control, dimethyl sulfoxide (DMSO) (0%) and a positive control, the mitochondrial uncoupling agent carbonyl cyanide 4-(trifluoromethoxy)-phenylhydrazone (FCCP) (100%). […]"}, "CCRF-SB cells": {"tested_on": "CCRF-SB cells", "experiment": "Cell cycle FACS analysis (propidium iodide)", "assay_type": "cell-based", "procedure": "Representative fluorescence-activated cell sorting (FACS) analysis of propidium iodide-stained CCRF-SB cells under normal growth conditions, and growth in the presence of the compound of formula I. The average percentage of cells in G0-G1, S, and G2-M phases is calculated in the table below the histographs."}, "HuVECs": {"tested_on": "HuVECs", "experiment": "In vitro angiogenesis assay (tube formation)", "assay_type": "cell-based, human", "conditions": "0, 1.0, or 10 μM, 8 h; p<0.05", "procedure": "HUVEC and endothelial growth media were obtained from Lonza (Walkersville, Md., USA). […] After 8 h, tube formation was evaluated using Leika DM IL microscopy (Leica Microsystems, Wetzlar, Germany) and analyzed with IM50 software (Leica Microsystems Imaging Solutions, Cambridge, UK). HUVEC cell migration and rearrangement was visualized, and the number of branching points counted.\nThe effect of P110δ inhibition on angiogenesis was investigated."}, "PI3Kα": {"target": "PI3Kα (Mus musculus, UniProt P42337)", "sequence (P42337 whole entry, canonical isoform)": "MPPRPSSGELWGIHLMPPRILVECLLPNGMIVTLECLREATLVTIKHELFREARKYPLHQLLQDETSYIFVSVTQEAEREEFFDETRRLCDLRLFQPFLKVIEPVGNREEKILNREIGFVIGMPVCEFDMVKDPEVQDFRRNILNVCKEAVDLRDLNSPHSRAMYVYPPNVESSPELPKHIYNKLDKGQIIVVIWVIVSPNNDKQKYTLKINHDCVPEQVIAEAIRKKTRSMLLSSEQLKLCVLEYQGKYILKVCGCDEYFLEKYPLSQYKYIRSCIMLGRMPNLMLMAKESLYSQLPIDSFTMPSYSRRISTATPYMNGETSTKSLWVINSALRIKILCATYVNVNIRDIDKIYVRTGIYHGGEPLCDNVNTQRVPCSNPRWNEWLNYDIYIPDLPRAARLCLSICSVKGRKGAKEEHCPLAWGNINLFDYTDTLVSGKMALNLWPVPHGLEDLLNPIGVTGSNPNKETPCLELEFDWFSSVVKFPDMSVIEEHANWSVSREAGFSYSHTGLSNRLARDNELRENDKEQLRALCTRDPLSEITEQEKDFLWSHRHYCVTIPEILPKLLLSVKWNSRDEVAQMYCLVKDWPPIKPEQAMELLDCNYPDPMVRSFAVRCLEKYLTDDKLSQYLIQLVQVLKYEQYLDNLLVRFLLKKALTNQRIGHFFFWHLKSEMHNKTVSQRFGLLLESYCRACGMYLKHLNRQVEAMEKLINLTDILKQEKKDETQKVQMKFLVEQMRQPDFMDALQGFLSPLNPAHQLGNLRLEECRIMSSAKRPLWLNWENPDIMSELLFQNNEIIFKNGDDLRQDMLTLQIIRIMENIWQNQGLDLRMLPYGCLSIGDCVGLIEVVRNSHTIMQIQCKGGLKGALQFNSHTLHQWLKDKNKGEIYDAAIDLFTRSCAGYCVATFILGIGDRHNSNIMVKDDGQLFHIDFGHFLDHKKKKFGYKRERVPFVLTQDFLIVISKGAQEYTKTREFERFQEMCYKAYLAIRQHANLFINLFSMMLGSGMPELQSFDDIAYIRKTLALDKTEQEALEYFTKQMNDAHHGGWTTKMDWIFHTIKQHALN", "sequence (P26450 whole entry partner, canonical isoform)": "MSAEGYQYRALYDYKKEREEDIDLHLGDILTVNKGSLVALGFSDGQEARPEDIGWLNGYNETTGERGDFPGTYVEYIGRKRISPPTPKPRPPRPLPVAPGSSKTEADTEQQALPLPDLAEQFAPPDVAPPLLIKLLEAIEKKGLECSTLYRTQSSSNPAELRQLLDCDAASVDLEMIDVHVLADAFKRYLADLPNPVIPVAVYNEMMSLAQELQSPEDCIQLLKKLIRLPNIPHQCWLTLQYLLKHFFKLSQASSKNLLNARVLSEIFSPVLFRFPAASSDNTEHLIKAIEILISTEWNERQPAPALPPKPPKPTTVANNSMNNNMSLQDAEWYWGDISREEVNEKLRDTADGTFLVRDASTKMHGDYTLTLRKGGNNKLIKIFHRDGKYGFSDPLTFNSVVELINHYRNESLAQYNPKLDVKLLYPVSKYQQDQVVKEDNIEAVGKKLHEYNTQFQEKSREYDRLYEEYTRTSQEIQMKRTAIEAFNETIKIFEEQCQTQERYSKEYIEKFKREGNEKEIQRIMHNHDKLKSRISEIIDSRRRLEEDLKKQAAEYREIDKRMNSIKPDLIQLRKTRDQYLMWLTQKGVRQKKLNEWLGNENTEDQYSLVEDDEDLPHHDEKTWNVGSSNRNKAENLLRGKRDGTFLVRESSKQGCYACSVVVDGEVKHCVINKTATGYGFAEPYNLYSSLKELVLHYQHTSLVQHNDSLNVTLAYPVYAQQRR", "experiment": "Isoform specific cell-based assay: PDGF induced pAKT in Swiss-3T3 fibroblasts", "conditions": "Fibroblast Cell Line, n = 12", "procedure": "Swiss-3T3 fibroblasts and RAW-264 were seeded on a 96-well tissue culture plate and allowed to reach at least 90% confluency. […] Akt phosphorylation and total AKT was detected by ELISA. […] Results are expressed as relative [^3H] thymidine incorporation induced by IgM crosslinking."}, "over 350 protein kinases": {"tested_on": "over 350 protein kinases", "experiment": "Ambit KINOMEscan kinome-wide protein kinase screen", "assay_type": "binding", "conditions": "10 μM, over 350 protein kinases (over 300)", "source_text": "Examples of some kinases in the screen are shown below in Table 3."}, "AKT and ERK1/2": {"tested_on": "AKT and ERK1/2", "experiment": "AKT and ERK1/2 in HuVEC (immunoblot)", "assay_type": "cell-based, human", "conditions": "8 h", "source_text": "Actin was used as a loading control."}, "FL cell lines": {"tested_on": "FL cell lines", "experiment": "PI3K signaling and apoptosis in follicular lymphoma cell lines", "assay_type": "cell-based"}, "[1]": {"tested_on": "CLL cells with purified B-cells", "experiment": "IgM production by B-cells cultured with treated CLL cells (ELISA)", "assay_type": "cell-based, human", "conditions": "0.5 μM lenalidomide and/or 10 μM compound, 48 hours, N=6; p<0.0001", "procedure": "Quantization of IgM was determined. Briefly, lenalidomide-treated or vehicle control-treated CLL cells, were irradiated and placed in culture with target, purified B-cells, in the absence or presence of PWM ([…]).\nGiven the importance of the CD40-CD154 axis for lenalidomide-treated CLL cells to promote normal B-cells to produce immunoglobulin, the compound of formula I was assessed to see whether it could prevent this occurrence. […] CLL cells were irradiated (20 Gy) and placed in culture with purified B-cells, in the absence or presence of 5 μg/mL PWM. Quantification of IgM was determined by ELISA analysis."}, "INA-6 and LB MM cells": {"tested_on": "INA-6 and LB MM cells", "experiment": "Autophagy / AVO development in MM cells", "assay_type": "cell-based, human", "procedure": "To detect and quantify AVOs in compound 1 or 3MA-treated cells, vital staining was performed for 15 min with acridine orange at a final concentration of 1 μg/ml. Samples were examined under a fluorescence microscope.\nAutophagosome formation was defined by the accumulation of LC3; arrows indicate autophagosomes, FIG. 33A.\nGAPDH served as a loading control."}}, "data": [{"smiles": "CC[C@H](Nc1ncnc2[nH]cnc12)c1nc2cccc(F)c2c(=O)n1-c1ccccc1", "note": "[Compound I, 5-fluoro-3-phenyl-2-[1-(9H-purin-6-ylamino)-propyl]-3H-quinazolin-4-one]", "values": [{"measurement": "IC50", "setting": "CIIbeta", "result": "> 1", "unit": "µM"}, {"measurement": "growth inhibition in the presence of IL-6 or IGF-1", "setting": "LB and INA-6 cells", "result": "Neither IL-6 nor IGF-1 protected against the growth inhibition"}, {"measurement": "mitochondrial priming of stroma-exposed CLL cells", "setting": "CLL cells", "result": "increased mitochondrial priming"}, {"measurement": "cell cycle", "setting": "CCRF-SB cells", "result": "G0/G1 cell cycle arrest"}, {"measurement": "capillary-like tube formation", "setting": "HuVECs", "result": "inhibited capillary-like tube formation in a dose-dependent fashion"}, {"measurement": "EC50", "setting": "PI3Kα", "result": "> 20", "unit": "µM"}, {"measurement": "cytotoxicity against p110δ-positive MM cells", "setting": "MM cell lines", "result": "induced cytotoxicity against LB and INA-6 mM cells (p110δ-positive) in a dose- and time-dependent fashion"}, {"measurement": "cytotoxicity in p110δ-negative cell lines", "setting": "MM cell lines", "result": "minimal cytotoxicity"}, {"measurement": "activity in kinome-wide protein kinase screen", "setting": "over 350 protein kinases", "result": "failed to detect any activity"}, {"measurement": "activity in kinome-wide protein kinase screen", "setting": "over 350 protein kinases; listed as compound of formula I", "result": "little activity"}, {"measurement": "phosphorylation and expression of AKT and ERK1/2 in HuVEC", "setting": "AKT and ERK1/2", "result": "markedly down regulated"}, {"measurement": "pAkt, Akt, pS6 and S6 in FL cell lines", "setting": "FL cell lines", "result": "reduction in the production of pAkt, Akt, pS6 and S6"}, {"measurement": "cleavage of PARP and Caspase-3 in FL cell lines", "setting": "FL cell lines; 24 hours, 0.1 μM and 0.5 μM", "result": "Cleavage of PARP and Caspase-3 is observed"}, {"measurement": "production of IgM", "setting": "[1]", "result": "completely prevent production of IgM"}, {"measurement": "LC3 staining", "setting": "INA-6 and LB MM cells; 5 μM, 6 h, INA-6 and LB", "result": "markedly increased LC 3 staining"}, {"measurement": "LC3-II and Beclin1 protein", "setting": "INA-6 and LB MM cells; INA-6, 6 h", "result": "markedly increased LC3-II and Beclin1 protein"}, {"measurement": "acidic vesicular organelle (AVO) development", "setting": "INA-6 and LB MM cells; acridine orange staining, LB and INA-6", "result": "development of AVOs"}]}]}
